Source: US9594084B2, “Phosphorylation of histones and uses thereof” (H. LEE MOFFITT CANCER CENTER AND RESEARCH INSTITUTE, priority 2012, dated 2017)

What was measured:
[1] = tested on: NPAT and RNA polymerase II at Site II; assay: ChIP-qPCR with NPAT or RNA Pol II antibodies at Site II in synchronized MEFs; assay type: cell-based, mouse; details: 6.30 hours post-release
Experimental: FIG. 3B-3F are graphs showing histone RNA (relative to actin) in wildtype (WT) and Y40A mutant yeast cells treated with α-factor for 3 hours, washed and harvested at indicated time points post-release. Total RNA was prepared followed by qRT-PCR for histones transcripts. FACS analysis of yeast cells was performed to determine exit of cells from […] (0 minutes) and entry into cell cycle. Data are representative of three independent experiments. The p values for 30 minutes are as follows: #p=0.024; ##p=0.008; ###p=0.0083; ####p=0.037. FIG. 3G to 3H are graphs showing ChIP (% input DNA) in synchronized MEFs treated with WEE1 inhibitor or untreated and harvested 6.30 hours post-release. ChIP was performed using NPAT and IgG antibodies (FIG. 3G) or RNA Pol II and IgG (FIG. 3H) followed by qPCR using primers corresponding to Site II. *p=0.0018, **p=0.01. FIG. 3I is an immunoblot showing total histones prepared from synchronized WT (first three columns) and Y40A mutant yeast cells (last three columns) 0, 20, and 30 minutes post release that were immunoprecipitated with pTyr37-H2B antibodies and immunoblotted with yeast H2B antibodies (upper panel) or yeast tubulin antibodies (bottom panel). […]
To understand the potential mechanism of repression of histone transcription the role of NPAT was assessed. […]

[2] = tested on: pY37-H2B marks within IDH2; assay: ChIP-qPCR of pY37-H2B marks within IDH2 in GBM derived cell lines; assay type: cell-based, human; details: U87
Excerpt: FIG. 44a-44f show H2B Tyr37-phosphorylation marks are deposited within IDH2.
To validate the role of WEE1 in IDH2 marking, chromatin from GBM derived cell line U87 was immunoprecipitated using the pY37-H2B antibody followed by qPCR. […] Similar data was obtained with another human GBM derived cell lines T98G (FIG. 44E).

WEE1 = WEE1 (Homo sapiens, UniProt P30291); assay: In vitro kinase assay, purified WEE1 and H2B; assay type: biochemical; set-up: GST; purchased Invitrogen; details: MK1775 0.625 μM, 1 hour at 30° C.
WEE1, sequence (P30291 whole entry): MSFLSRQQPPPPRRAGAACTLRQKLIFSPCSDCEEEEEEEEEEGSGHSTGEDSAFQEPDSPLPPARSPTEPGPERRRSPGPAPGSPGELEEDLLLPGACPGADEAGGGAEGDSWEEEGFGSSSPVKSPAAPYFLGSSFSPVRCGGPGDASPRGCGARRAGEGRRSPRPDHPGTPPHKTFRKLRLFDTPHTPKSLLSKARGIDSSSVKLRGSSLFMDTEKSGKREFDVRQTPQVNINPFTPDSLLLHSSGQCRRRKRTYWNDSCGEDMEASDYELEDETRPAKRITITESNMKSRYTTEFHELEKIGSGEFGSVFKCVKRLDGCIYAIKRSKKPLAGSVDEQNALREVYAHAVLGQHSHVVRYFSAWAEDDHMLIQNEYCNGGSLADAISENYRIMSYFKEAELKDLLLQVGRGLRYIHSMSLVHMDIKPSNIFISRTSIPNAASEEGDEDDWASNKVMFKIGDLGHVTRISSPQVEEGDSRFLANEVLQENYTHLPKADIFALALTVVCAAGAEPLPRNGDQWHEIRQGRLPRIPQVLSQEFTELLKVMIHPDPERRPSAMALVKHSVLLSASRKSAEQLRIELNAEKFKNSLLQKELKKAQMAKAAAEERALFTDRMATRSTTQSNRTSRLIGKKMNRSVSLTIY
Experimental: FIG. 13A is an immunoblot showing lysates from synchronized MEFs immunoprecipitated with pTyr37-H2B antibodies followed by immunoblotting with pTyr37-H2B antibody (top panel) or H2B antibody (bottom panel). FIG. 13B is an immunoblot showing cell lysates 6.30 hours post-release from H1975 cells synchronized by double thymidine alone (first column) or with 0.31 μM (second column), 0.62 μM (third column) and 1.25 μM (fourth column) MK1775 WEE1 inhibitor that were immunoprecipitated with pTyr37-H2B antibodies followed by immunoblotting with pTyr37-H2B, H2B, pTyr15-Cdc2, or Cdc2 antibodies. FIG. 13C is an immunoblot showing lysates collected at 0 and 6.30 hours post-release from synchronized MEFs transfected with control (first two columns) or WEE1 (last two columns) siRNAs that were immunoprecipitated with pTyr37-H2B antibodies followed by immunoblotting with pTyr37-H2B (top panel), H2B (second panel), WEE1 (third panel), or PTyr15-Cdc2 (bottom panel) antibodies. FIG. 13D is an immunoblot showing equimolar amounts of purified WEE1 (last three columns) and H2B (first three columns) proteins incubated in the presence (third column) or absence of WEE1 inhibitor (MK1775, 0.625 μM) for 1 hour at 30° C. and immunoblotted with pTyr37-H2B (top panel), H2B (middle panel), and WEE1 (bottom panel) antibodies. […]

- recruitment of NPAT at Site II [1]: binding was detected
- recruitment of RNA polymerase II at Site II [1]: binding was detected
- H2B pTyr37-phosphorylation by purified WEE1 (WEE1): abrogated
SMILES: C=CCn1c(=O)c2cnc(Nc3ccc(N4CCN(C)CC4)cc3)nc2n1-c1cccc(C(C)(C)O)n1 [MK-1775]
- pY37-H2B marks within IDH2 [2]: completely erased
